The target in one data set is T1, human STING variant AQ (Homo sapiens, UniProt Q86WV6, G230A/H232R/R293Q).
T1 construct: expressed in transfected cells; host or cells: THP1-Blue ISG hSTING KO clone, retroviral MSCV-ires-GFP-Blasti
Description: THP1-Blue ISG IRF-inducible SEAP reporter assay, STING AQ-variant. In kind it is cell-based. The conditions noted are these: THP1-Blue ISG hSTING KO cells expressing STING AQ; 24 hours incubation. The source says: (§1) Activation of the STING protein expressed in cell lines results in an increase of interferon production. By the stable integration of an interferon regulatory factor (IRF)-inducible SEAP gene (secreted embryonic alkaline phosphatase) reporter construct the functional interferon signaling pathway can be monitored. Using Invivogen's THP1-Blue™ ISG colorimetric enzyme assay and a suitable optical density (OD) reader the activity of SEAP can be detected and quantified. This technique could be used to characterize pharmacological modification of the STING pathway.
(§2) Several single nucleotide polymorphisms have been identified in the human STING gene. To determine the activity of the above described compounds, THP1-Blue™ ISG reporter cell lines expressing the different human STING variants have been generated. To do so, the endogenous human STING was first deleted using the CRISPR/CAS9 system: THP1-Blue ISG cells were electroporated with ALL-IN-ONE CRISPR plasmids targeting the STING gene (purchased from Sigma encoding the gRNA and GFP as a reporter gene for successful transduction). GFP positive cells then were sorted 24 h post transfection and expanded. Cells were then dispersed in semisolid methocel medium to allow single cell clone isolations. Clones were then screened for cGAMP responsiveness using the Quanti-Blue™ reporter assay. Non-responsive clones were subsequently analysed for STING loss by western blotting and sequencing of the STING locus.
(§3) For the overexpression of the human STING variants, a confirmed THP1-Blue™ ISG hSTING KO clone was transduced with individual retroviral plasmids (MSCV-ires-GFP-Blasti) encoding the allelic variants of hSTING (WT (H232R), HAQ, R232H, AQ and R293Q). Transduced cells were sorted for different levels of GFP fluorescence and STING allele expression was analysed by western blot.
(§4) Measurements of SEAP activity were performed in THP1-Blue™ ISG cells stably expressing the different human STING isoforms and the IRF-inducible SEAP reporter construct. Cells were cultivated in RPMI1640 medium with 10% fetal calf serum, 50 μg/ml Penicillin-Streptomycin, 100 μg/ml Zeocin, and 100 μg/ml Normocin in a 37°, 95% humidity and 5% CO2 incubator.
(§5) In preparation for the assay, the cells were distributed into the assay plates with a density of 10000 cells/15 μL per well. Compounds were prepared by an 8 point serial dilution in 50% aqueous DMSO and a final dilution step into medium to ensure a final DMSO concentration of 0.5% in the assay. 5 μL of diluted compounds were added to the plates, followed by a 24 hours incubation at 37° C.
(§6) At the day of the assay, 75 μl per well of Quanti-Blue™ reagent was added to all wells of the plate and the plate was incubated another 30 minutes at 37° C. The OD at 620 nm was measured on the EnVision reader (PerkinElmer).

In data set [1] the test system is Human STING (hSTING, UNIPROT entry Q86WV6, residues 155-341). Description: Interaction with hSTING by differential scanning fluorimetry (DSF). In kind it is binding. Particulars: 100 μM test compound, 5 μM hSTING protein. As for the experimental part:
In DSF, the temperature at which a protein unfolds, also called the melting temperature Tm, is measured by changes in fluorescence of a dye that binds to the hydrophobic parts of the protein. Tm shifts upon binding of a small molecule are correlated with the binding affinity of this small molecule. As target protein, Human STING (hSTING, UNIPROT entry Q86WV6, residues 155-341, MW: 21578.4 Da; protein stock solution: c=1302 μM stock solution in 20 mM Tris, 100 mM NaCl, 2 mM TCEP pH 8.8) was used, as assay buffer 20 mM Tris, 150 mM NaCl pH7.5 was added where and as necessary.
Final concentrations of components in assay: 100 μM test compounds, 5 μM target protein, “5×” SYPR Orange (from stock solution SYPRO orange solution in DMSO (invitrogen cat.-no. 56650-500ul), concentration “5000×”)
Assay Procedure: • 1) Dilutions of compound stock solutions (10 mM in DMSO) were prepared in assay buffer (20 mM Tris, 150 mM NaCl; pH7.5) • 2) 5 μl fluorescent dye stock solution (5000×SYPRO Orange in DMSO) was mixed with 19 μl target protein (1302 μM) and 976 μl assay buffer. • 3) 2 μl of this protein-dye-mixture (25×SYPRO Orange and 25 μM Protein) was added to 8 μl diluted compound solution as prepared in step 1. Final volume was 10 μl. • 4) With every 20 compounds, two negative controls were measured. • 5) The plates were prepared for duplicate measurement and centrifuged for 2 min at 1000 g. • 6) For the measurement, a CFX384 Real-Time System (Bio-Rad) was used. The run consisted of 140 cycles with 0.5° C./cycle (temperature ramp 15 s/cycle, 25° C. to 95° C.).
Data analysis: The melting curves were processed in Bio-Rad CFX Manager. Peak type was set to “negative”. Two replicates of TM (melting temperature) measurements were averaged and the standard deviation was calculated.

A further data set has as its target T2, human STING variant HAQ (Homo sapiens, UniProt Q86WV6, G230A/H232R/R293Q/R71H).
T2 construct: expressed in transfected cells; host or cells: THP1-Blue ISG: either parental cells (endogenous HAQ) or hSTING KO clone retrovirally transduced with HAQ
Description: THP1-Blue ISG IRF-inducible SEAP reporter assay, STING HAQ-variant. Particulars: THP1-Blue ISG cells expressing STING HAQ (parental or re-introduced); 24 hours incubation; SEAP OD 620 nm. It is filed as cell-based.
From the text: as §1, §2, §3, §4, §5, §6
Data of EC50 values on STING HAQ-variant can be found in table 2a. Shown data below were either derived from the parental THP1-Blue™ ISG cell lines (which express endogenously HAQ) or from genetically engineered THP1-Blue™ ISG cell lines in which first STING has been knocked-out and the HAQ specific STING isoform has been re-introduced as described above.
On the technique in general: A reporter such as luciferase makes a cellular process visible.

Data set [2] has as its target T3, human STING variant R232H (Homo sapiens, UniProt Q86WV6).
T3 construct: expressed in transfected cells; host or cells: THP1-Blue ISG hSTING KO clone, retroviral MSCV-ires-GFP-Blasti
The experiment in a line: THP1-Blue ISG IRF-inducible SEAP reporter assay, STING R232H-variant. The conditions noted are these: THP1-Blue ISG hSTING KO cells expressing STING R232H; 24 hours incubation. In kind it is cell-based.
From the text: as §1, §2, §3, §4, §5, §6

Data set [3] deals with T4, human STING variant H232R (WT) (Homo sapiens, UniProt Q86WV6, H232R).
T4 construct: expressed in transfected cells; host or cells: THP1-Blue ISG hSTING KO clone, retroviral MSCV-ires-GFP-Blasti
The experiment in a line: THP1-Blue ISG IRF-inducible SEAP reporter assay, STING H232R-variant. It is filed as cell-based. The conditions noted are these: THP1-Blue ISG hSTING KO cells expressing STING H232R; 24 hours incubation.
From the text: as §1, §2, §3, §4, §5, §6

Data set [4] concerns the target T5, human STING variant R293Q (Homo sapiens, UniProt Q86WV6, H232R/R293Q).
T5 construct: expressed in transfected cells; host or cells: THP1-Blue ISG hSTING KO clone, retroviral MSCV-ires-GFP-Blasti
Description: THP1-Blue ISG IRF-inducible SEAP reporter assay, STING R293Q-variant. The conditions noted are these: THP1-Blue ISG hSTING KO cells expressing STING R293Q; 24 hours incubation. In kind it is cell-based.
From the text: as §1, §2, §3, §4, §5, §6

The next data set in a line: in vitro. Particulars: human, Caco-2, pH 7.4.

This is an account of results in patent US20240166629A1, “HETEROCYCLIC COMPOUNDS CAPABLE OF ACTIVATING STING” (Boehringer Ingelheim International GmbH, priority 2022, published 2024).

Each structure is given as a SMILES string.

T4 sequence (Q86WV6 whole entry H232R): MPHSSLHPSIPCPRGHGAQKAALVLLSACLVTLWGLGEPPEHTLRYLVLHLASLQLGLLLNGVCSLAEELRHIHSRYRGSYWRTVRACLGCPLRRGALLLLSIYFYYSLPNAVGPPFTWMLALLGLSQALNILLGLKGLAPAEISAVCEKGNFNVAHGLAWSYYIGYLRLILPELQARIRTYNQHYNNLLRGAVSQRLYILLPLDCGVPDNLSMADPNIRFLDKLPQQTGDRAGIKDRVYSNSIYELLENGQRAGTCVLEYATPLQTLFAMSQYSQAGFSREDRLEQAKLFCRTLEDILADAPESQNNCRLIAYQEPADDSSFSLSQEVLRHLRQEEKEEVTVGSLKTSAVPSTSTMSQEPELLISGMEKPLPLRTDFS
T5 sequence (Q86WV6 whole entry H232R/R293Q): as the sequence (Q86WV6 whole entry H232R) above, with R293Q counted along it
T2 sequence (Q86WV6 whole entry R71H/G230A/H232R/R293Q): as the sequence (Q86WV6 whole entry H232R) above, with R71H, G230A, R293Q counted along it
T3 sequence (Q86WV6 whole entry, stated change not applied): as the sequence (Q86WV6 whole entry H232R) above, with R232H counted along it
T1 sequence (Q86WV6 whole entry G230A/H232R/R293Q): as the sequence (Q86WV6 whole entry H232R) above, with G230A, R293Q counted along it
Description for in vitro: Caco-2 cells were obtained from Leibniz Institute DSMZ-German Collection of Microorganisms and Cell Cultures (Braunschweig, Germany) and cultured in DMEM (Dulbecco's modified Eagle medium) containing (in final concentrations) 10% FCS (fetal calf serum), 1% NEAA (non-essential amino acids), 2 mM Glutamin, 100 U/mL Penicillin and 100 μg/mL Streptomycin. Caco-2 cells were seeded either onto 24-well Transwell inserts (Corning, #3379) for bidirectional permeability assays at a density of 160,000 cells/cm^2 and cultured for 3 weeks, with media change on every second day.
For bidirectional permeability assays 10 mM DMSO stock solutions were diluted in transport buffer (final concentrations: 128.13 mM NaCl, 5.36 mM KCl, 1 mM MgSO4, 1.8 mM CaCl2, 4.17 mM NaHCO3, 1.19 mM Na2HPO4, 0.41 mM NaH2PO4, 15 mM 2-[4-(2-hydroxyethyl)piperazin-1-yl]ethanesulfonic acid (HEPES), 20 mM glucose, pH 7.4) containing 0.25% bovine serum albumin to a final concentration of 10 μM of the test compounds and added to the apical or basal compartment. Cells were incubated with the compounds for up to 2 h. Samples from the opposite compartment were taken at different timepoints.
Compound concentrations in the compartments were quantified using a RapidFire-based high-throughput HPLC/MS/MS system (high performance liquid chromatography/mass spectrometry; BioCius) that was customized to a fully automated and flexible platform, termed RIAS. In this modified setup, the sample was aspirated by a vacuum pump into a 10 μL sample loop for 250 ms and flushed onto a C4 cartridge (3.8 μL bed volume; BioCius) with the aqueous mobile phase (99.9% water, 0.09% formic acid, and 0.01% TFA; flow rate 1.5 mL/min). Prior to bioanalysis samples were spiked with internal standard solution and diluted with acetonitrile (ACN) for protein precipitation. Measurement was operated in multiplereaction monitoring (MRM) mode. Quantification was performed using external calibration. A solid-phase extraction step retained the analyte for 3000 ms while interfering matrix (e.g., buffer components) was removed. With a simple step gradient, the analyte was back-eluted from the cartridge for 3,000 ms with the organic mobile phase (99.9% acetonitrile/methanol [1:1, v:v], 0.09% formic acid, and 0.01% TFA) and flushed into the mass spectrometer at a flow rate of 1.25 mL/min. Afterwards, the cartridge was reequilibrated with the aqueous mobile phase for 500 ms (flow rate 1.5 mL/min). The RapidFire software and a customized control software were obtained from BioCius. QuickQuan 2.3, Xcalibur 2.0.7, and XDK 2.1.0.25 were used to operate the TSQ Vantage mass spectrometer (ThermoFisher, San Jose, CA) integrated to the RapidFire system. Mass spectral data-processing software QuickCalc 7.1.9 was purchased from ThermoFisher. The Master software for the RIAS was programmed in-house using LabVIEW (version 8.6.1; National Instruments, Austin, TX). Data analysis was performed in AssayExplorer 3.2 (Symyx, Sunnyvale, CA), and correlation plots were visualized in Spotfire version 2.2.0 (TIBCO, Palo Alto, CA).
Apparent permeability coefficients in the apical to basal direction (Papp,AB) and in the basal to apical direction (Papp,BA) and efflux ratios were calculated as follows:
Efflux ratio=Papp,BA/Papp,AB
where Q is the amount of compound recovered in the receiver compartment after the incubation time t, C0 the initial compound concentration given to the donor compartment, and s the surface area of the Transwell inserts. […] In addition, transepithelial electrical resistance (TEER) values are measured for each plate before the permeability assay, and total recovery in donor and receiver compartments was determined for each compound.

The term EC50 denotes the concentration needed to bring the measured effect to its halfway point. As for `Cc1cc(F)cc2c(-c3cccc4nn(C)cc34)nn(-c3ccc(N4CCS(=O)(=O)CC4)nc3)c12` [Example #1, 4-(5-(5-fluoro-2′,7-dimethyl-1H,2′H-[3,4′-biindazol]-1-yl)pyridin-2-yl)thiomorpholine 1,1-dioxide], the EC50 was 1800 nM on human STING variant AQ; 2300 nM on human STING variant HAQ; 700 nM in data set [2]; 800 nM in data set [3]; 2200 nM in data set [4]. Also, the “TM (changes in TM, thermal shift)” value in data set [1] was 21 K.

The Papp A→B is how fast a substance crosses the layer from the apical side. A low value points to poor permeation. One may read the efflux ratio as a quotient of directional permeabilities that is used to spot active efflux. On to `Cc1cc(F)cc2c(-c3cccc4nn(C)cc34)nn(-c3ccc(N4CCN(C=O)CC4)nc3)c12` [Example #3, 4-(5-(5-Fluoro-2′,7-dimethyl-1H,2′H-[3,4′-biindazol]-1-yl)pyridin-2-yl)piperazine-1-carbaldehyde], for which the EC50 on human STING variant AQ came out at 1000 nM; on human STING variant HAQ, 1900 nM; in data set [2], 600 nM; in data set [3], 600 nM; in data set [4], 1800 nM. Further, the “TM (changes in TM, thermal shift)” value in data set [1] is given as 21 K. This molecule yielded a Papp A→B at 10 μM in “in vitro” of 15 ×10⁻⁶ cm/s. Further, the efflux ratio at 10 μM in the data set “in vitro” stood at 1.7.

In the case of `Cc1c(Cl)ccc2c(-c3cccc4nn(C)cc34)nn(-c3ccc(N4CCC(S(C)(=O)=O)CC4)nc3)c12` [compound 2, 6-chloro-2′,7-dimethyl-1-(6-(4-(methylsulfonyl)piperidin-1-yl)pyridin-3-yl)-1H,2′H-3,4′-biindazole], the EC50 at human STING variant AQ is 600 nM; on human STING variant HAQ, 900 nM; in data set [2] it was 300 nM; in data set [3] it was 300 nM; in data set [4] it was 700 nM. In addition, the “TM (changes in TM, thermal shift)” value in data set [1] is 22 K.

Turning to `Cc1c(F)ccc2c(-c3cccc4nn(C)cc34)nn(-c3ccc(N4C[C@@H]5[C@H](C4)[C@H]5C(=O)O)nc3)c12` [compound 6, (1R,5S,6r)-3-(5-(6-fluoro-2′,7-dimethyl-1H,2′H-[3,4′-biindazol]-1-yl)pyridin-2-yl)-3-azabicyclo[3.1.0]hexane-6-carboxylic acid], the EC50 on human STING variant HAQ was 300 nM; in data set [3], 200 nM. Also, the Papp A→B at 10 μM in the data set “in vitro” came to 9 ×10⁻⁶ cm/s. The efflux ratio at 10 μM in “in vitro” came out at 2.4.

Consider `Cc1c(F)ccc2c(-c3cccc4nn(C)cc34)nn(-c3ccc(N4CCC(C(=O)O)CC4)nc3)c12` [compound 7, 1-(5-(6-fluoro-2′,7-dimethyl-1H,2′H-[3,4′-biindazol]-1-yl)pyridin-2-yl)piperidine-4-carboxylic acid], for which the EC50 at human STING variant HAQ worked out at 800 nM. In “in vitro”, the Papp A→B at 10 μM amounted to 13 ×10⁻⁶ cm/s and the efflux ratio at 10 μM turned out to be 1.8. Moreover, the EC50 in data set [3] was determined as 200 nM.

Consider `Cc1c(Cl)ccc2c(-c3cccc4nn(C)cc34)nn(-c3ccc(N4CCC(C(=O)O)CC4)nc3)c12` [compound 9, 1-(5-(6-chloro-2′,7-dimethyl-1H,2′H-[3,4′-biindazol]-1-yl)pyridin-2-yl)piperidine-4-carboxylic acid], for which the EC50 on human STING variant HAQ came out at 700 nM. Further, in the data set “in vitro”, the Papp A→B at 10 μM worked out at 10 ×10⁻⁶ cm/s and the efflux ratio at 10 μM stood at 1.5.

As to `Cc1cc(Cl)cc2c(-c3cccc4nn(C)cc34)nn(-c3ccc(N4CCC(C(=O)O)CC4)nc3)c12` [compound 10, 1-(5-(5-chloro-2′,7-dimethyl-1H,2′H-[3,4′-biindazol]-1-yl)pyridin-2-yl)piperidine-4-carboxylic acid], the EC50 came to 5600 nM at human STING variant AQ; 6600 nM at human STING variant HAQ; 2200 nM in data set [2]; 2200 nM in data set [3]; 7800 nM in data set [4]. Moreover, in data set [1], the “TM (changes in TM, thermal shift)” value amounted to 19 K.

As for `Cc1cc(Cl)cc2c(-c3cccc4nn(C)cc34)nn(-c3ccc(N4C[C@@H]5[C@H](C4)[C@H]5C(=O)O)nc3)c12` [compound 11, (1R,5S,6r)-3-(5-(5-chloro-2′,7-dimethyl-1H,2′H-[3,4′-biindazol]-1-yl)pyridin-2-yl)-3-azabicyclo[3.1.0]hexane-6-carboxylic acid], the EC50 at human STING variant AQ is 2400 nM; at human STING variant HAQ, 3900 nM; in data set [2] it was 900 nM; in data set [3], 800 nM; in data set [4] it was 3000 nM. In addition, the “TM (changes in TM, thermal shift)” value in data set [1] was 24 K.

`Cc1c(Cl)c(F)cc2c(-c3cccc4nn(C)cc34)nn(-c3ccc(N4CCC(C(=O)O)CC4)nc3)c12` [compound 12, 1-(5-(6-chloro-5-fluoro-2′,7-dimethyl-1H,2′H-[3,4′-biindazol]-1-yl)pyridin-2-yl) piperidine-4-carboxylic acid]: the EC50 on human STING variant AQ was 600 nM; on human STING variant HAQ it was 700 nM; in data set [2], 300 nM; in data set [3], 300 nM; in data set [4], 600 nM. The molecule also gave a Papp A→B at 10 μM in “in vitro” of 4 ×10⁻⁶ cm/s. The efflux ratio at 10 μM in “in vitro” amounted to 6.4.

For the molecule `Cc1c(Cl)c(F)cc2c(-c3cccc4nn(C)cc34)nn(-c3ccc(N4C[C@@H]5[C@H](C4)[C@H]5C(=O)O)nc3)c12` [compound 13, (1R,5S,6r)-3-(5-(6-chloro-5-fluoro-2′,7-dimethyl-1H,2′H-[3,4′-biindazol]-1-yl)pyridin-2-yl)-3-azabicyclo[3.1.0] hexane-6-carboxylic acid], at human STING variant HAQ, the EC50 worked out at 300 nM. In “in vitro”, the Papp A→B at 10 μM turned out to be 2 ×10⁻⁶ cm/s and the efflux ratio at 10 μM stood at 3.6.
